Assay results as given in patent US20180296595A1, “METHODS AND COMPOSITIONS FOR CANCER TREATMENT” (Memorial Sloan Kettering Cancer Center, priority 2015, published 2018).
Ends that are not written are not given here.

Tests used:
[1] = molecular target: FR2 (Homo sapiens, UniProt P14207); conditions: read-out: affinity for FR2; cited from earlier work
[2] = molecular target: FR1 (Homo sapiens, UniProt P15328); conditions: read-out: affinity for FR1; cited from earlier work
[3] = system: LNCaP xenografts; assay: LNCaP prostate cancer xenografts; type: in vivo
Experimental: Each of the photographs in FIG. 6, panel C and panel D depicts a representative animal treated with vehicle (FIG. 6, panel C) or bortezomib-loaded FH (1.0 mM) (FIG. 6, panel D).
Studies in breast cancer described a “low intracellular iron” phenotype, characterized by high ferroportin, which was associated with good prognosis. In contrast, the “high intracellular iron” phenotype, characterized by low ferroportin and high hepcidin, was associated with a poor prognosis (Pinnix et al. (2010), Sci. Transl. Med., 2(43): 43ra56). Recently, a similar observation was made in prostate cancer (Tesfay et al. (2015) Cancer Res., 75(11):2254-63. To extend the analysis to prostate cancer, LNCaP prostate cancer xenografts were treated with FH-loaded bortezomib (a ROS-inducing drug).
FH alone was able to decrease tumor volume by about 33% (panel b). […] Free bortezomib was not effective, but when loaded into FH a significant therapy effect was achieved as shown in (panels a and b). Importantly, FH alone also exerted an effect, decreasing tumor volume. Each of the photographs in panel c and panel d depicts a representative animal treated with vehicle (panel c) or bortezomib-loaded FH (1.0 mM) (panel d).

[4] = system: 22RV1 cells; assay: FPN expression after hepcidin therapy; type: cell-based
From the text: As a followup, eight different genomic datasets available for prostate cancer on cBioPortal (www.cbioportal.org) containing whole genome data from 1229 prostate cancer patients were mined for analysis. […] FACS and Western Blotting confirmed higher expression of FPN in 22RV1 compared to DU145 (FIG. 7, panel C). […] In 22RV1 cells with higher FPN higher levels of erastin were required compared to DU145 cells with low FPN (FIG. 7, panel E).

Sequence of FR1 (P15328 25-234): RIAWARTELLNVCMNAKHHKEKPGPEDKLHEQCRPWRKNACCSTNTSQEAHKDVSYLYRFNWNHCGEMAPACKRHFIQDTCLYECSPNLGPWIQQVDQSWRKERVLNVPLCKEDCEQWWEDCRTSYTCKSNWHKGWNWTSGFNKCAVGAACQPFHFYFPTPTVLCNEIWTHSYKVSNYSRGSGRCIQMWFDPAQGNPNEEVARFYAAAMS
Sequence of FR2 (P14207 17-230): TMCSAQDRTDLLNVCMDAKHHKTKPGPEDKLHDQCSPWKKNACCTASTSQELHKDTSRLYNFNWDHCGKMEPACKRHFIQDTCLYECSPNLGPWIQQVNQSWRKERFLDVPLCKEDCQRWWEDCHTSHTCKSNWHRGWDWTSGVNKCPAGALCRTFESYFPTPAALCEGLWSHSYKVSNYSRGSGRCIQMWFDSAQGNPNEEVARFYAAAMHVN

Compound: CN1c2c(nc(N)[nH]c2=O)NC[C@@H]1CNc1ccc(C(=O)N[C@@H](CCC(=O)O)C(=O)O)cc1 [6S 5-methyltetrahydrofolate]
- Kd [1]: 1 nM
- Kd [2]: 55 nM

Compound: CC(C)C[C@H](NC(=O)[C@H](Cc1ccccc1)NC(=O)c1cnccn1)B(O)O [bortezomib]
- therapeutic effect [3]: not effective

Compound: hepcidin (DTHFPICIFCCGCCHRSKCGMCCKT; ends and bridges not checked; cysteine pairing not given here; UniProt P81172 60-84, looked up) [peptide hormone, key regulator of iron homeostasis]
- FPN on the cell surface [4]: lowered FPN on the cell surface
